Measurements as given in patent US8637269B2, “Method for the detection of melamine” (Bioo Scientific Corporation, priority 2009, dated 2014).

Target: recombinant MDA enzyme (melamine deaminase, Tri A) (Paracidovorax citrulli, UniProt Q9EYU0)
Assay: Enzymatic detection of melamine in microtiter plates (MDA-mediated conversion to ammonia, indophenol colour)
Format: biochemical, Pseudomonas sp. strain NRRL B-12227
Conditions: melamine (1000 ppm stock) and MDA enzyme diluted in 0.1 M Na-MOPS pH 7, overnight (about 12 hours), room temperature; salicylate/nitroprusside and NaOH/hypochlorite reagents; FIG. 2
Text: The TriA gene encoding the melamine deaminase enzyme was inserted into the multiple cloning site region of the pET 24b bacterial expression plasmid. This subcloning strategy places the gene under the transcriptional regulation of the T7 RNA polymerase and fuses a His6 peptide tag onto the C-terminus of the protein to facilitate purification. We expressed the protein (MW about 50 kDa) in E. coli strain BL21 (DE3) and obtained significant amounts of soluble protein in the induced bacterial cultures. After disruption the lysed cell extract was passed over a Talon Cobalt column to bind the His6-tagged protein. After washing the column the bound protein was eluted from the column and dialyzed to remove imidazole.
Purified, desalted recombinant MDA enzyme (about 2 mg/ml in 0.1 M Na-MOPS buffer pH 7) and melamine (1000 ppm) were diluted into 0.1 M Na-MOPS buffer (pH 7) and incubated overnight (about 12 hours) at room temperature. Reaction aliquots were removed and tested for the production of ammonia by mixing the samples with salicylate/nitroprusside and NaOH/hypochlorite reagents in 96 well microtiter plates.

Chain of recombinant MDA enzyme (melamine deaminase, Tri A) (Q9EYU0 whole entry): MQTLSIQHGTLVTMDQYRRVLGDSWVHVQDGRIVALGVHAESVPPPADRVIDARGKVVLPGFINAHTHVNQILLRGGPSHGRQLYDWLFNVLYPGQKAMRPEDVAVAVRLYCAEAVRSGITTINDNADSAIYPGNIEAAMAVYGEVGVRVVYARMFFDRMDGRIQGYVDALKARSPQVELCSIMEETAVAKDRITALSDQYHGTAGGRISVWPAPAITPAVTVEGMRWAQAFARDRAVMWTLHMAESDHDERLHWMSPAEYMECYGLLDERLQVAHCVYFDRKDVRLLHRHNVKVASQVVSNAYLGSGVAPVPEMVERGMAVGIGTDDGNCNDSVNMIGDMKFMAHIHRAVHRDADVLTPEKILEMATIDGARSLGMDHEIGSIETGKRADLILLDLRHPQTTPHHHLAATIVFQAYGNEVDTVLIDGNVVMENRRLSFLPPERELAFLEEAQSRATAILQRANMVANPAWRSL

SMILES: Nc1nc(N)nc(N)n1 [melamine]
- color change indicating MDA-mediated conversion of melamine to ammonia: strong color change
